| SMILES | melting point |
| --- | --- |
| c1ccc2c(c1)ncc1nc3n(c12)[C@@H](C1CCOCC1)COC3 [Example 42, (11S)-11-Tetrahydro-2H-pyran-4-yl-10,11-dihydro-8H-[1,4]oxazino[4′,3′:1,2]imidazo[4,5-c]quinoline] | 234 to 237 °C |
| Nc1nc2ccccc2c2c1nc1n2[C@@H](C2CCOCC2)COC1 [Example 43, (11S)-11-Tetrahydro-2H-pyran-4-yl-10,11-dihydro-8H-[1,4]oxazino[4′,3′:1,2]imidazo[4,5-c]quinolin-6-amine] | 240.4 to 243.4 °C |
| Cc1nc(N)c2nc3n(c2c1C)[C@@H](C)COC3 [Example 44, (4S)-4,6,7-Trimethyl-3,4-dihydro-1H-pyrido[3′,4′:4,5]imidazo[2,1-c][1,4]oxazin-9-amine] | 264 to 267 °C |
| Nc1nc2ccccc2c2c1nc1n2[C@@H](COCc2ccc(F)cc2)COC1 [Example 45, (11S)-11-{[(4-Fluorobenzyl)oxy]methyl}-10,11-dihydro-8H-[1,4]oxazino[4′,3′:1,2]imidazo[4,5-c]quinolin-6-amine] | 134 to 137 °C |
| Nc1nc2ccccc2c2c1nc1n2[C@@H](Cc2ccc(F)cc2)COC1 [Example 46, (11S)-11-(4-Fluorobenzyl)-10,11-dihydro-8H-[1,4]oxazino[4′,3′:1,2]imidazo[4,5-c]quinolin-6-amine] | 170 to 172 °C |
| Nc1nc2ccccc2c2c1nc1n2[C@@H](C2CCCCC2)COC1 [Example 47, (11S)-11-Cyclohexyl-10,11-dihydro-8H-[1,4]oxazino[4′,3′:1,2]imidazo[4,5-c]quinolin-6-amine] | 228 to 230 °C |
| COc1ccc(C[C@H]2COCc3nc4c(N)nc5ccccc5c4n32)cc1 [Example 49, (11S)-11-(4-Methoxybenzyl)-10,11-dihydro-8H-[1,4]oxazino[4′,3′:1,2]imidazo[4,5-c]quinolin-6-amine] | 115 to 130 °C |
| Nc1nc2ccccc2c2c1nc1n2[C@@H](c2cc(-c3ccc(F)cc3)no2)COC1 [Example 50, (11R)-11-[3-(4-Fluorophenyl)isoxazol-5-yl]-10,11-dihydro-8H-[1,4]oxazino[4′,3′:1,2]imidazo[4,5-c]quinolin-6-amine] | 261 to 262 °C |
| C#CCOc1ccc2nc(N)c3nc4n(c3c2c1)[C@@H](C)COC4 [Example 51, (11S)-11-Methyl-2-(prop-2-ynyloxy)-10,11-dihydro-8H-[1,4]oxazino[4′,3′:1,2]imidazo[4,5-c]quinolin-6-amine] | 184 to 186 °C |
| Cc1nc(COc2ccc3nc(N)c4nc5n(c4c3c2)[C@@H](C)COC5)cs1 [Example 52, (11S)-11-Methyl-2-[(2-methyl-1,3-thiazol-4-yl)methoxy]-10,11-dihydro-8H-[1,4]oxazino[4′,3′:1,2]imidazo[4,5-c]quinolin-6-amine] | 105 to 107 °C |
| C[C@H]1COCc2nc3c(N)nc4ccc(OC(=O)N5CCCC5)cc4c3n21 [Example 53, (11S)-6-Amino-11-methyl-10,11-dihydro-8H-[1,4]oxazino[4′,3′:1,2]imidazo[4,5-c]quinolin-2-ylpyrrolidine-1-carboxylate] | 218 to 219 °C |
| C[C@H]1COCc2nc3c(N)nc4ccc(OCc5cscn5)cc4c3n21 [Example 54, (11S)-11-Methyl-2-(1,3-thiazol-4-ylmethoxy)-10,11-dihydro-8H-[1,4]oxazino[4′,3′:1,2]imidazo[4,5-c]quinolin-6-amine] | 240 to 242 °C |
| C[C@H]1COCc2nc3c(N)nc4ccc(OCC(=O)N5CCOCC5)cc4c3n21 [Example 55, (11S)-11-Methyl-2-(2-morpholin-4-yl-2-oxoethoxy)-10,11-dihydro-8H-[1,4]oxazino[4′,3′:1,2]imidazo[4,5-c]quinolin-6-amine] | 226 to 228 °C |

Results, then the compound that gave them:

| melting point | SMILES |
| --- | --- |
| 186 to 188 °C | C[C@H]1COCc2nc3c(N)nc4ccc(OCCN5CCOCC5)cc4c3n21 [Example 56, (11S)-11-Methyl-2-(2-morpholin-4-ylethoxy)-10,11-dihydro-8H-[1,4]oxazino[4′,3′:1,2]imidazo[4,5-c]quinolin-6-amine] |
| 187 to 188 °C | CCOc1ccc2nc(N)c3nc4n(c3c2c1)[C@@H](C)COC4 [Example 57, (11S)-2-Ethoxy-11-methyl-10,11-dihydro-8H-[1,4]oxazino[4′,3′:1,2]imidazo[4,5-c]quinolin-6-amine] |
| 137 to 139 °C | CC(C)[C@H]1COCc2nc3c(N)nc4cc(OCC(=O)N5CCOCC5)ccc4c3n21 [Example 58, (11S)-11-Isopropyl-3-(2-morpholin-4-yl-2-oxoethoxy)-10,11-dihydro-8H-[1,4]oxazino[4′,3′:1,2]imidazo[4,5-c]quinolin-6-amine] |
| 194 to 195 °C | CC(C)[C@H]1COCc2nc3c(N)nc4cc(OCCN5CCOCC5)ccc4c3n21 [Example 59, (11S)-11-Isopropyl-3-(2-morpholin-4-ylethoxy)-10,11-dihydro-8H-[1,4]oxazino[4′,3′:1,2]imidazo[4,5-c]quinolin-6-amine] |
| 205 to 206 °C | C[C@H]1COCc2nc3c(N)nc4cc(CCS(C)(=O)=O)ccc4c3n21 [Example 61, (11S)-11-Methyl-3-[2-(methylsulfonyl)ethyl]-10,11-dihydro-8H-[1,4]oxazino[4′,3′:1,2]imidazo[4,5-c]quinolin-6-amine] |
| > 250 °C | C[C@H]1COCc2nc3c(N)nc4cc(/C=C/C(=O)N5CCOCC5)ccc4c3n21 [Example 62, (11S)-11-Methyl-3-[(1E)-3-morpholin-4-yl-3-oxoprop-1-enyl]-10,11-dihydro-8H-[1,4]oxazino[4′,3′:1,2]imidazo[4,5-c]quinolin-6-amine] |
| 245 to 247 °C | C[C@H]1COCc2nc3c(N)nc4cc(CCC(=O)N5CCOCC5)ccc4c3n21 [Example 63, (11S)-11-Methyl-3-(3-morpholin-4-yl-3-oxopropyl)-10,11-dihydro-8H-[1,4]oxazino[4′,3′:1,2]imidazo[4,5-c]quinolin-6-amine] |
| 235 to 237 °C | C[C@H]1COCc2nc3c(N)nc4cc(CCC(=O)N(C)C)ccc4c3n21 [Example 64, 3-[(11S)-6-Amino-11-methyl-10,11-dihydro-8H-[1,4]oxazino[4′,3′:1,2]imidazo[4,5-c]quinolin-3-yl]-N,N-dimethylpropanamide] |
